Data published in patent publication US20110250136A1, “FLUORINATED BENZOTHIAZOLE DERIVATIVES, PREPARATION METHOD THEREOF AND IMAGING AGENT FOR DIAGNOSING ALTZHEIMER'S DISEASE USING THE SAME” (SNU R&DB FOUNDATION, priority 2008, published 2011).
Values joined by “and” are separate entries in the source; they are usually repeats but may differ in a detail not shown here. Identical values can stand only once. Each block holds one compound with its values, some of them ahead of it.

Tests used:
Aβ1-40 fibrils [1] = target: T1, Aβ1-40 fibrils (Homo sapiens, UniProt P05067); conditions: radioactive ligand, known value, first Aβ1-40; cited from earlier work
T1 construct: beta-amyloid plaque peptides (Aβ1-40 and Aβ1-42)

Aβ1-42 fibrils [2] = target: T2, Aβ1-42 fibrils (Homo sapiens, UniProt P05067); conditions: radioactive ligand, known value, printed as second Aβ1-40; read-out: Kd for Aβ1-40 (second named); cited from earlier work
T2 construct: beta-amyloid plaque peptides (Aβ1-40 and Aβ1-42)

Aβ1-42 fibrils [3] = target: T2, Aβ1-42 fibrils; experiment: Binding affinity to beta-amyloid fibrils, competition with [125I]TZDM; conditions: [125I]TZDM radioligand
Procedure: (§1) A fibril solution, in which 1 mg of each of beta-amyloid plaque peptides (Aβ1-40 and Aβ1-42) to be used for analysis was dissolved in 1.155 ml of ethylenediaminetetraacetic acid disodium salt (Na2EDTA) solution, was introduced into 20 mM PBS buffer (pH 7.4), a sonication was performed for 30 minutes, and then the mixture was incubated with stirring for 3 days at 30° C. The thus-obtained solution was high speed centrifuged (28,000 g for 15 minutes) at 4° C., and the supernatant was collected. The precipitate was washed twice with 100 μl of a mixture solution of 1 mM ethylenediaminetetraacetic acid disodium salt and 10 mM PBS buffer. The precipitate was resuspended in 2.310 ml of 1 mM ethylenediaminetetraacetic acid disodium salt and 10 mM PBS buffer, and the suspended sold produced was divided into equal aliquots of 30 μl and kept at −80° C. […] A mixed solution with a total volume of 1000 μl was incubated at room temperature for 3 hours, and then a Whatman GF/B filter was used to separate the solution into unbound radioactive materials and bound radioactive materials. Then, each tube was washed three times with 3 μl of 10% ethanol. The radioactivity was measured using an automatic gamma counter.

Aβ1-40 fibrils [4] = target: T1, Aβ1-40 fibrils; experiment: as above; conditions: [125I]TZDM radioligand
Procedure: as §1

[5] = Measurement of partition coefficient (1-octanol / PBS buffer, gamma counter); type: physicochemical; conditions: 1-octanol / 1 M PBS buffer, room temperature; read-out: Log P value
Procedure: For this purpose, the distribution ratio of octanol to water buffer of the compound to be measured may be measured to determine the relative lipophilicity of each compound. […] The mixture was vortexed at room temperature for 5 minutes and then was centrifuged at 1000 rpm for 5 minutes. 4 ml was withdrawn from the octanol layer of the solution, introduced into a new tube, and another 4 ml of 1 M PBS buffer was introduced into the tube. The mixture was vortexed at room temperature for 5 minutes and then centrifuged at 1000 rpm for 5 minutes. 50 μl was withdrawn from the octanol layer and introduced into a test tube, and 500 μl was withdrawn from the 1 M PBS buffer and introduced into the test tube. 3 ml was withdrawn from the octanol layer and introduced into another test tube, and another 3 ml of 1 M PBS buffer was added into the test tube. The mixture was vortexed at room temperature for 5 minutes and then centrifuged at 1000 rpm for 5 minutes. 50 μl was withdrawn from the octanol layer and introduced into a test tube, and 500 μl was withdrawn from the 1 M PBS buffer and introduced into the test tube. 2 ml was withdrawn from the octanol layer and introduced into another test tube, and another 2 ml of the PBS buffer. The mixture was vortexed at room temperature for 5 minutes and then centrifuged at 1000 rpm for 5 minutes. […]

[6] = Brain imaging (PET) of normal volunteer, brain region to cerebellar ratio; type: in vivo, human; conditions: 196 MBq i.v.; for brain region to cerebellar ratio, Cinerea / brain region to cerebellar ratio, Frontal cortex / brain region to cerebellar ratio, Occipital cortex / brain region to cerebellar ratio, posterior cingulate cortex: PET; for brain region to cerebellar ratio, Cerebell: PET (reference region)
Procedure: Each of the compounds (196 MBq) in Examples 2 and 3 of the present invention was dissolved in 6 ml of physiological saline solution including 5% ethanol, the resulting solution was intravenously injected into a normal volunteer (78 kg), and Static Images of the brain from the injection to 2 hours were obtained through a Phillips Allegro PET scanner. The protocol of the brain imaging repeated emission and transmission as follows.
[2 minute emission+transmission]×four times
[5 minute emission+transmission]×four times
[10 minute emission+transmission]×three times
For attenuation correction, a Cs-137 radiation source prior to the administration was used to obtain a one-and-a half minute transmission scan per bed (18 cm). The transmission image and a 3D Row-Action Maximum-Likelihood (RAMLA) algorithm were used to reconstruct an attenuation corrected image. The 3D voxel size was 2.0×2.0×2.0 mm and the matrix size was 128×128×90 (FIGS. 2 and 3).

[7] = In vivo cerebral uptake and release degree in a normal mouse; set-up: species or system ICR mice; conditions: for % ID-kg/g: corrected for body weight; for % ID/g: tail vein injection, normal mouse; for release from normal mouse brain (in words): up to 60 min
Procedure: 6 week-old ICR mice were used for experiments on cerebral uptake and release degree of three 6-[18F]fluorine-2-allylbenzothiazole derivatives (compounds in Examples 1 to 3) in a mouse over time. Each of the compounds in Examples 1 to 3 was dissolved in physiological saline solution containing 5% ethanol, and each of 200 μl (100 μCi) of the solutions was injected through the tail vein of the mouse. 2, 30, and 60 minutes were selected as in-vivo retention time periods, and 4 to 7 mice were used in each time period. After the mice were sacrificed by cervical dislocation in each time period, the brains were quickly removed, they were separated into three parts of cortex, cerebellum, and remnant on filter paper kept on ice, respectively, and blood was collected. The specimen thus-obtained was introduced into a glass tube, the weight was determined, and the radioactivity were measured using a gamma counter. Using the data obtained, the percent injected dose per gram of tissue (% ID/g) in each sample compared to radioactivity actually injected, and the value (% ID-kg/g) corrected for individual body weights of the mice used were calculated.

T1 sequence (P05067 672-711 limits assumed): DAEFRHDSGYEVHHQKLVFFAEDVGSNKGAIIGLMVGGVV
T2 sequence (P05067 672-713 limits assumed): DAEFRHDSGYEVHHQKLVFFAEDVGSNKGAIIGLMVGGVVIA

SMILES: CNc1ccc(-c2nc3ccccc3s2)cc1I [2-(3-[125I]iodo-4′-N-methylaminophenyl)benzothiazole]
Kd (Aβ1-40 fibrils [1]): 2.3 ± 0.33 nM
Kd (Aβ1-42 fibrils [2]): 0.44 ± 0.25 nM

SMILES: CN(C)c1ccc(-c2nc3ccc([18F])cc3s2)cc1 [Example 3, 2-(4′-N-Dimethylaminophenyl)-6-[^18F]fluorobenzothiazole]
logP [5]: 4.33
brain region to cerebellar ratio, Cinerea ([6]; 15 min): 0.40
brain region to cerebellar ratio, Frontal cortex ([6]; 15 min): 0.88
brain region to cerebellar ratio, Occipital cortex ([6]; 15 min): 1.17
brain region to cerebellar ratio, posterior cingulate cortex ([6]; 15 min): 0.91
brain region to cerebellar ratio, Cerebell ([6]; 15 min): 1.00
brain region to cerebellar ratio, Cinerea ([6]; 90 min): 0.83
brain region to cerebellar ratio, Frontal cortex ([6]; 90 min): 1.02
brain region to cerebellar ratio, Occipital cortex ([6]; 90 min): 1.12
brain region to cerebellar ratio, posterior cingulate cortex ([6]; 90 min): 1.00
brain region to cerebellar ratio, Cerebell ([6]; 90 min): 1.00
% ID-kg/g ([7]; Blood, 2 min): 0.040 ± 0.003 % ID-kg/g
% ID/g ([7]; Blood, 2 min): 1.55 ± 0.08 % ID/g
% ID-kg/g ([7]; Blood, 30 min): 0.026 ± 0.005 % ID-kg/g
% ID/g ([7]; Blood, 30 min): 1.04 ± 0.19 % ID/g
% ID-kg/g ([7]; Blood, 60 min): 0.021 ± 0.010 % ID-kg/g
% ID/g ([7]; Blood, 60 min): 1.02 ± 0.06 % ID/g
% ID-kg/g ([7]; Cerebellum, 2 min): 0.115 ± 0.005 % ID-kg/g
% ID/g ([7]; Cerebellum, 2 min): 4.45 ± 0.19 % ID/g
% ID-kg/g ([7]; Cerebellum, 30 min): 0.050 ± 0.007 % ID-kg/g
% ID/g ([7]; Cerebellum, 30 min): 2.03 ± 0.26 % ID/g
% ID-kg/g ([7]; Cerebellum, 60 min): 0.024 ± 0.012 % ID-kg/g
% ID/g ([7]; Cerebellum, 60 min): 1.16 ± 0.09 % ID/g
% ID-kg/g ([7]; Cortex, 2 min): 0.114 ± 0.004 % ID-kg/g
% ID/g ([7]; Cortex, 2 min): 4.39 ± 0.22 % ID/g
% ID-kg/g ([7]; Cortex, 30 min): 0.054 ± 0.006 % ID-kg/g
% ID/g ([7]; Cortex, 30 min): 2.17 ± 0.26 % ID/g
% ID-kg/g ([7]; Cortex, 60 min): 0.033 ± 0.017 % ID-kg/g
% ID/g ([7]; Cortex, 60 min): 1.61 ± 0.22 % ID/g
% ID-kg/g ([7]; Remnant (brain), 2 min): 0.110 ± 0.006 % ID-kg/g
% ID/g ([7]; Remnant (brain), 2 min): 4.26 ± 0.22 % ID/g
% ID-kg/g ([7]; Remnant (brain), 30 min): 0.069 ± 0.010 % ID-kg/g
% ID/g ([7]; Remnant (brain), 30 min): 2.80 ± 0.39 % ID/g
% ID-kg/g ([7]; Remnant (brain), 60 min): 0.041 ± 0.020 % ID-kg/g
% ID/g ([7]; Remnant (brain), 60 min): 2.01 ± 0.15 % ID/g
initial cerebral uptake (in words) ([7]; normal mouse brain, 2 min): relatively lower initial cerebral uptake
release from normal mouse brain (in words) ([7]; normal mouse brain): slower 60-minute removal rate

Continued, in another order:

melting point: 153.5 to 154.5 °C
Ki (Aβ1-42 fibrils [3]): 7.55 nM
Ki (Aβ1-40 fibrils [4]): 13.3 nM
SMILES: CNc1ccc(-c2nc3ccc(F)cc3s2)cc1 [Example 5, 2-(4′-N-methylaminophenyl)-6-fluorobenzothiazole]

logP [5]: 3.11
brain region to cerebellar ratio, Cinerea ([6]; 15 min): 0.45
brain region to cerebellar ratio, Frontal cortex ([6]; 15 min): 0.92
brain region to cerebellar ratio, Occipital cortex ([6]; 15 min): 1.05
brain region to cerebellar ratio, posterior cingulate cortex ([6]; 15 min): 0.89
brain region to cerebellar ratio, Cerebell ([6]; 15 min): 1.00
brain region to cerebellar ratio, Cinerea ([6]; 90 min): 0.83
brain region to cerebellar ratio, Frontal cortex ([6]; 90 min): 0.96
brain region to cerebellar ratio, Occipital cortex ([6]; 90 min): 0.95
brain region to cerebellar ratio, posterior cingulate cortex ([6]; 90 min): 0.87
brain region to cerebellar ratio, Cerebell ([6]; 90 min): 1.00
% ID/g ([7]; Blood, 2 min): 2.08 ± 0.19 % ID/g
% ID/g ([7]; Blood, 30 min): 0.92 ± 0.15 % ID/g
% ID/g ([7]; Blood, 60 min): 1.28 ± 0.08 % ID/g
% ID/g ([7]; Cerebellum, 2 min): 6.24 ± 0.35 % ID/g
% ID/g ([7]; Cerebellum, 30 min): 1.38 ± 0.23 % ID/g
% ID/g ([7]; Cerebellum, 60 min): 0.98 ± 0.12 % ID/g
% ID/g ([7]; Cortex, 2 min): 6.62±0.33 % ID/g
% ID/g ([7]; Cortex, 30 min): 1.20 ± 0.20 % ID/g
% ID/g ([7]; Cortex, 60 min): 0.73±0.09 % ID/g and 0.73 ± 0.10 % ID/g
% ID/g ([7]; Remnant (brain), 2 min): 6.30 ± 0.46 % ID/g
% ID/g ([7]; Remnant (brain), 30 min): 1.91 ± 0.30 % ID/g
% ID/g ([7]; Remnant (brain), 60 min): 1.32 ± 0.15 % ID/g
release from normal mouse brain (in words) ([7]; normal mouse brain): very quickly released
SMILES: CNc1ccc(-c2nc3ccc([18F])cc3s2)cc1 [Example 2, 2-(4′-N-Methylaminophenyl)-6-[^18F]fluorobenzothiazole]
% ID-kg/g ([7]; Blood, 2 min): 0.070 ± 0.007 % ID-kg/g
% ID-kg/g ([7]; Blood, 30 min): 0.032 ± 0.007 % ID-kg/g
% ID-kg/g ([7]; Blood, 60 min): 0.042 ± 0.006 % ID-kg/g
% ID-kg/g ([7]; Cerebellum, 2 min): 0.210 ± 0.017 % ID-kg/g
% ID-kg/g ([7]; Cerebellum, 30 min): 0.048 ± 0.011 % ID-kg/g
% ID-kg/g ([7]; Cerebellum, 60 min): 0.032 ± 0.003 % ID-kg/g
% ID-kg/g ([7]; Cortex, 2 min): 0.222 ± 0.015 % ID-kg/g
% ID-kg/g ([7]; Cortex, 30 min): 0.042 ± 0.010 % ID-kg/g
% ID-kg/g ([7]; Cortex, 60 min): 0.024 ± 0.002 % ID-kg/g
% ID-kg/g ([7]; Remnant (brain), 2 min): 0.212 ± 0.017 % ID-kg/g
% ID-kg/g ([7]; Remnant (brain), 30 min): 0.066 ± 0.014 % ID-kg/g
% ID-kg/g ([7]; Remnant (brain), 60 min): 0.044 ± 0.003 % ID-kg/g

melting point: 204.4 to 205.9 °C
Ki (Aβ1-42 fibrils [3]): 1.86 nM
Ki (Aβ1-40 fibrils [4]): 7.9 nM
SMILES: CN(C)c1ccc(-c2nc3ccc(F)cc3s2)cc1 [Example 6, 2-(4′-Dimethylaminophenyl)-6-fluorobenzothiazole]
